Read-outs that look alike come from different tables or passages of the source.
What was measured:
E.coli LPS induced shock = conditions: Fig 1
Method: In a first experiment outbred mice were divided into groups and received treatment either with a hamster anti-murine TNF antibody TN3 19.12 or with the xanthine derivative, pentoxifylline.
Each group of animals received 60mg/kg E.coli LPS by intravenous injection into a tail vein.
Those groups of animals treated with TN3 19.12 received between 0.1 and 30mg/kg of the antibody by intravenous injection of 0.1ml of liquid into the tail vein 2 hours before LPS administration.
Those groups to be treated with pentoxifylline received between 1mg/kg and 300mg/kg intravenously five minutes prior to LPS administration.
In control experiments animals received an injection of an equivalent volume of saline.
The groups received one of three different treatment as follows: • A) Control - received 60mg/kg E.coli LPS intravenously followed by saline injection; • B) Received 1mg/kg TN3 19.12 i.v. 2 hrs prior to challenge with 60mg/kg E.coli LPS i.v. and 1mg/kg pentoxifylline i.v. 5 mins prior to challenge; • C) As B) but these mice also received repeat doses of 1mg/kg pentoxifylline 24,48 and 72 hours after LPS challenge.

[1] = tested on: Salmonella abortus equi LPS induced shock; assay: Salmonella abortus equi LPS induced shock model in galactosamine sensitised mice (inhibition of mortality); format: in vivo, C57BL mice; conditions: 100mg/kg pentoxifylline alone; Fig 5
Method: Similar experiments to those described above were carried out in galactosamine sensitised C57BL mice which were challenged with LPS from Salmonella abortus equi. Mortality was measured 96 hrs after the LPS challenge.

For `CC(=O)CCCCn1c(=O)c2c(ncn2C)n(C)c1=O` [pentoxifylline, 3,7-dimethyl-1-(5-oxohexyl)xanthine], the “effect on mortality (mean deaths per experiment)” value (E.coli LPS induced shock; pentoxifylline alone 1mg/kg i.v. five minutes prior to 60mg/kg E.coli LPS i.v.) was “no effect”, the “effect on mortality (mean deaths per experiment)” value (E.coli LPS induced shock; pentoxifylline alone at higher doses than 1mg/kg (up to 300mg/kg) i.v. five minutes prior to LPS) was “accelerated mortality” and the “protective effect (mortality)” value [1] was “no protective effect”.
